Counter-ions that a name gives are not always drawn.

The target of one assay is T1, CK2 holoenzyme (CK2α2β2) (Homo sapiens, UniProt P68400).
T1 construct: made in house; host or cells: E. coli BL21(DE3)
Nature of the assay: Capillary electrophoresis assay, inhibition of the CK2 holoenzyme kinase activity. It is filed as biochemical. Here is the method:
The inhibition of the catalytic activity of the CK2 holoenzyme (CK2α2β2) was determined in an enzyme assay. In brief, the CK2 holoenzyme was incubated with the decapeptide […] and ATP. The amount of phosphorylated peptide (Ser7) was recorded by capillary electrophoresis (CE).
The capillary electrophoresis assay to determine the inhibition of the CK2 holoenzyme (CK2α2β2) was performed as described in refs. [40, 46]. The CK2 holoenzyme was recombinantly expressed in E. coli BL21(DE3) and purified according to the protocol by Grankowski et al.. Enzymatic activity was determined in the presence of 1 µg of CK2α2β2, 60 µM of ATP, and 114 µM of the substrate peptide […]. The assay buffer contained 60 mM NaCl and 10 mM MgCl2. Inhibition was determined in three independent experiments at a compound concentration of 10 µM, and the mean value and the standard deviation (SD) were calculated.

For assay [1], the target named is T2, CK2α/CK2β interaction (human CK2α1–335, human CK2β1–193) (Homo sapiens, UniProt P68400).
T2 construct: human CK2α^1–335; made in house
T2 sequence (P68400 1-335): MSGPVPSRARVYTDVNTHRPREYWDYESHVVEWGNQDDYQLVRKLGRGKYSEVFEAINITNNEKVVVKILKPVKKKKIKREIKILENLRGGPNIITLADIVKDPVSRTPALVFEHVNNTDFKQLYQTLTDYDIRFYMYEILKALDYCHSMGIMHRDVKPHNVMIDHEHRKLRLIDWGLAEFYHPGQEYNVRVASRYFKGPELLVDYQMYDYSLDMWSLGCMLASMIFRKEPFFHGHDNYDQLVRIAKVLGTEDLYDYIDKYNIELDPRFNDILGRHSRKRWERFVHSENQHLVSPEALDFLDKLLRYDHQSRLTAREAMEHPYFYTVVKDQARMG
Nature of the assay: Microscale thermophoresis (MST) assay of the CK2α/CK2β subunit interaction. It is filed as binding. As for the experimental part: A microscale thermophoresis (MST) assay was used to determine the interaction of the CK2α and CK2β subunits. In this assay, a constant concentration of the fluorescently labeled CK2β subunit was added to increasing concentrations of the CK2α subunit and the thermophoretic shift was recorded, respectively. […] The same experiment was performed in the presence of 20, 50, or 100 µM of the test compounds (see Table 1). An increased KD′ value in the presence of the test compounds was evaluated as the inhibition of the association of the CK2α and CK2β subunits. The increased KD′ value was then transformed together with the employed concentration of the test compound into the Ki value for the inhibition of the CK2α/CK2β association (formula see Supporting Information).
The compounds were investigated at a final concentration of 20, 50, or 100 µM. […] Data analysis and statistical evaluation were conducted with GraphPad Prism v.6 for Windows (GraphPad Software, La Jolla, CA, USA, www.graphpad.com).

The test system of the next assay is CK2α/CK2β interaction. The following applies: read-out: Inhibition of CK2α/CK2β interaction IC50; cited from earlier work.
For the next assay, the system named is CK2α subunit. Also noted: method as in PMID 18553057. The following applies: read-out: Inhibition of the kinase activity of the CK2α subunit IC50; cited from earlier work.
The subject of a further assay is CK2. The following applies: ATP competitive; read-out: CK2 inhibition IC50; cited from earlier work.
In assay [2] the test system is human prostate tumor cell line. Also noted: method as in PMID 39698287. The following applies: cited from earlier work.

T1 sequence (P68400 whole entry): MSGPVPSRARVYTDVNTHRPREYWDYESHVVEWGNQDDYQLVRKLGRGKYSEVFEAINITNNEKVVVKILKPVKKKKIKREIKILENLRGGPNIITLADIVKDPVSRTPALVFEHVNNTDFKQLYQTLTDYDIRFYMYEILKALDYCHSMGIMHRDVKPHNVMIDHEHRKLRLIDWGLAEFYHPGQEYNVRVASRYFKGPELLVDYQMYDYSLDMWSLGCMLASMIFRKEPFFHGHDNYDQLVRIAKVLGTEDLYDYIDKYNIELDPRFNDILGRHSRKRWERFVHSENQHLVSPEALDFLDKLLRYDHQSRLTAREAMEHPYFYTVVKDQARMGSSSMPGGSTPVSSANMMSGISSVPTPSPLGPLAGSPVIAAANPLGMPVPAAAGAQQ

As for `COC(=O)[C@H](Cc1c[nH]cn1)NC(=O)[C@H]1c2[nH]c3ccccc3c2[C@H](c2cc(OC)c(OC)c(OC)c2)[C@@H]2C(=O)NC(=O)[C@@H]21` [(+)-20a, Methyl N-{[(3aS,4R,10S,10aS)-1,3-dioxo-10-(3,4,5-trimethoxyphenyl)-1,2,3,3a,4,5,10,10a-octahydropyrrolo[3,4-b]carbazol-4-yl]carbonyl}-(S)-histidinate∙HCl], at CK2 holoenzyme (CK2α2β2) (CE assay, 60 µM ATP, 114 µM peptide […]), the IC50 turned out to be 2.5 µM. Further, the inhibition at 10 µM at CK2 holoenzyme (CK2α2β2) (first screening, test compound concentration 10 µM, read-out: Enzyme inhibition of CK2 holoenzyme) was > 50%. Further, the affinity in assay [1], expressed as Kd, was 0.101 ± 0.004 µM. In assay [1] (MST, global analysis, KD′ = KD [1 + (ccompound/Ki)], n.s. = KD′ not significantly different from KD, read-out: Inhibition of CK2α/CK2β Interaction Ki), the Ki was 6.1 µM.
In the case of `COc1cc([C@H]2c3c([nH]c4ccccc34)[C@@H](C(=O)N3C(=O)OC[C@@H]3Cc3ccccc3)[C@H]3C(=O)OC(=O)[C@@H]23)cc(OC)c1OC` [(+)-4 (W16)], the IC50 is […] in the assay with CK2α/CK2β interaction and 20 µM in the assay with CK2α subunit.
As to `O=C1CCc2c(oc3cc(Br)c(O)c(Br)c23)/C1=C/Nc1ccccc1` [2b], the IC50 with CK2 is 0.0058 µM. In addition, in assay [2], the Antiproliferative activity entry is listed as “showed antiproliferative activity”.
